Data as given in ChEMBL document CHEMBL3885881, “DrugMatrix”.

Organism: Rattus norvegicus
Test: DrugMatrix - Regimen: Daily Repeat
Type: toxicity, organism-based, Sprague-Dawley
Design: regimen Daily Repeat, gender Male, age 6-8 weeks
Settings: in vivo, po, route oral GAVAGE, vehicle .5 % CMC; for BASOPHIL / EOSINOPHIL / ERYTHROCYTE COUNT / HEMATOCRIT / HEMOGLOBIN / LEUKOCYTE COUNT / LYMPHOCYTE / MEAN CORPUSCULAR HEMOGLOBIN / MEAN CORPUSCULAR HEMOGLOBIN CONCENTRATION / MEAN CORPUSCULAR VOLUME / MONOCYTE / NEUTROPHIL / PLATELET COUNT: tissue Blood; for ALANINE AMINOTRANSFERASE / ALBUMIN / ALKALINE PHOSPHATASE / ASPARTATE AMINOTRANSFERASE / BLOOD UREA NITROGEN / CHLORIDE / CHOLESTEROL / CREATINE PHOSPHOKINASE / CREATININE / GLUCOSE / PHOSPHORUS / POTASSIUM / SODIUM / TOTAL BILIRUBIN / TOTAL PROTEIN: tissue Plasma
[1] = 0 mg/kg, 72 h, dose level Control, time 3 day
[2] = 0 mg/kg, 120 h, dose level Control, time 5 day
[3] = 41 mg/kg, 72 h, dose level High, time 3 day
[4] = 41 mg/kg, 120 h, dose level High, time 5 day
[5] = […], 72 h, dose 4.1 mg/Kg, dose level Low, time 3 day
[6] = […], 120 h, dose 4.1 mg/Kg, dose level Low, time 5 day

O=C1c2ccccc2C(=O)C1c1ccccc1 [PHENINDIONE]
BASOPHIL [1]: 0.68% | EOSINOPHIL [1]: 0.46% | ERYTHROCYTE COUNT [1]: 7.15 x10E6/uL | HEMATOCRIT [1]: 45.44% | HEMOGLOBIN [1]: 14.1 G/DL | LEUKOCYTE COUNT [1]: 9.78 x10E3/uL | LYMPHOCYTE [1]: 84.44% | MEAN CORPUSCULAR HEMOGLOBIN [1]: 19.72 pg | MEAN CORPUSCULAR HEMOGLOBIN CONCENTRATION [1]: 31 G/DL | MEAN CORPUSCULAR VOLUME [1]: 63.66 fL | MONOCYTE [1]: 2.14% | NEUTROPHIL [1]: 11.16% | PLATELET COUNT [1]: 1378.2 x10E3/uL | ALANINE AMINOTRANSFERASE [1]: 42.33 u/L | ALBUMIN [1]: 3.8 G/DL | ALKALINE PHOSPHATASE [1]: 388.17 u/L | ASPARTATE AMINOTRANSFERASE [1]: 68 u/L | BLOOD UREA NITROGEN [1]: 16.17 mg/dL | CHLORIDE [1]: 96.67 MEQ/L | CHOLESTEROL [1]: 71 mg/dL | CREATINE PHOSPHOKINASE [1]: 156.17 u/L | CREATININE [1]: 0.57 mg/dL | GLUCOSE [1]: 193.67 mg/dL | PHOSPHORUS [1]: 11.43 mg/dL | POTASSIUM [1]: 7 MEQ/L | SODIUM [1]: 140.33 MEQ/L | TOTAL BILIRUBIN [1]: 0.48 mg/dL | TOTAL PROTEIN [1]: 6.8 G/DL | BASOPHIL [2]: 1.47% | EOSINOPHIL [2]: 1% | ERYTHROCYTE COUNT [2]: 7.12 x10E6/uL | HEMATOCRIT [2]: 45.47% | HEMOGLOBIN [2]: 14.1 G/DL | LEUKOCYTE COUNT [2]: 11.38 x10E3/uL | LYMPHOCYTE [2]: 82.57% | MEAN CORPUSCULAR HEMOGLOBIN [2]: 19.82 pg | MEAN CORPUSCULAR HEMOGLOBIN CONCENTRATION [2]: 31.02 G/DL | MEAN CORPUSCULAR VOLUME [2]: 63.88 fL | MONOCYTE [2]: 2.2% | NEUTROPHIL [2]: 11.97% | PLATELET COUNT [2]: 1267 x10E3/uL | ALANINE AMINOTRANSFERASE [2]: 38 u/L | ALBUMIN [2]: 3.72 G/DL | ALKALINE PHOSPHATASE [2]: 391 u/L | ASPARTATE AMINOTRANSFERASE [2]: 65.83 u/L | BLOOD UREA NITROGEN [2]: 14.17 mg/dL | CHLORIDE [2]: 107.67 MEQ/L | CHOLESTEROL [2]: 61 mg/dL | CREATINE PHOSPHOKINASE [2]: 148.33 u/L | CREATININE [2]: 0.57 mg/dL | GLUCOSE [2]: 177.17 mg/dL | PHOSPHORUS [2]: 12.07 mg/dL | POTASSIUM [2]: 7.2 MEQ/L | SODIUM [2]: 151.5 MEQ/L | TOTAL BILIRUBIN [2]: 0.58 mg/dL | TOTAL PROTEIN [2]: 6.72 G/DL | BASOPHIL [3]: 0.3% | EOSINOPHIL [3]: 0.33% | ERYTHROCYTE COUNT [3]: 7.21 x10E6/uL | HEMATOCRIT [3]: 45.77% | HEMOGLOBIN [3]: 14.17 G/DL | LEUKOCYTE COUNT [3]: 11.97 x10E3/uL | LYMPHOCYTE [3]: 84.4% | MEAN CORPUSCULAR HEMOGLOBIN [3]: 19.77 pg | MEAN CORPUSCULAR HEMOGLOBIN CONCENTRATION [3]: 30.97 G/DL | MEAN CORPUSCULAR VOLUME [3]: 63.73 fL | MONOCYTE [3]: 2.13% | NEUTROPHIL [3]: 11.97% | PLATELET COUNT [3]: 1382.67 x10E3/uL | ALANINE AMINOTRANSFERASE [3]: 31.33 u/L | ALBUMIN [3]: 3.67 G/DL | ALKALINE PHOSPHATASE [3]: 276 u/L | ASPARTATE AMINOTRANSFERASE [3]: 57 u/L | BLOOD UREA NITROGEN [3]: 11 mg/dL | CHLORIDE [3]: 96 MEQ/L | CHOLESTEROL [3]: 75.33 mg/dL | CREATINE PHOSPHOKINASE [3]: 160 u/L | CREATININE [3]: 0.47 mg/dL | GLUCOSE [3]: 189.67 mg/dL | PHOSPHORUS [3]: 13.23 mg/dL | POTASSIUM [3]: 6.77 MEQ/L | SODIUM [3]: 140.67 MEQ/L | TOTAL BILIRUBIN [3]: 0.27 mg/dL | TOTAL PROTEIN [3]: 6.63 G/DL | BASOPHIL [4]: 1.47% | EOSINOPHIL [4]: 0.3% | ERYTHROCYTE COUNT [4]: 7.12 x10E6/uL | HEMATOCRIT [4]: 45.4% | HEMOGLOBIN [4]: 14.17 G/DL | LEUKOCYTE COUNT [4]: 14.99 x10E3/uL | LYMPHOCYTE [4]: 85.6% | MEAN CORPUSCULAR HEMOGLOBIN [4]: 19.93 pg | MEAN CORPUSCULAR HEMOGLOBIN CONCENTRATION [4]: 31.23 G/DL | MEAN CORPUSCULAR VOLUME [4]: 63.83 fL | MONOCYTE [4]: 2.43% | NEUTROPHIL [4]: 9.5% | PLATELET COUNT [4]: 1502.67 x10E3/uL | ALANINE AMINOTRANSFERASE [4]: 34 u/L | ALBUMIN [4]: 3.53 G/DL | ALKALINE PHOSPHATASE [4]: 292 u/L | ASPARTATE AMINOTRANSFERASE [4]: 57 u/L | BLOOD UREA NITROGEN [4]: 10.67 mg/dL | CHLORIDE [4]: 103.67 MEQ/L | CHOLESTEROL [4]: 83.33 mg/dL | CREATINE PHOSPHOKINASE [4]: 132.67 u/L | CREATININE [4]: 0.47 mg/dL | GLUCOSE [4]: 192.67 mg/dL | PHOSPHORUS [4]: 12.77 mg/dL | POTASSIUM [4]: 7.37 MEQ/L | SODIUM [4]: 150 MEQ/L | TOTAL BILIRUBIN [4]: 0.37 mg/dL | TOTAL PROTEIN [4]: 6.43 G/DL | BASOPHIL [5]: 0.47% | EOSINOPHIL [5]: 0.27% | ERYTHROCYTE COUNT [5]: 7.09 x10E6/uL | HEMATOCRIT [5]: 45.17% | HEMOGLOBIN [5]: 13.97 G/DL | LEUKOCYTE COUNT [5]: 12.61 x10E3/uL | LYMPHOCYTE [5]: 82.37% | MEAN CORPUSCULAR HEMOGLOBIN [5]: 19.7 pg | MEAN CORPUSCULAR HEMOGLOBIN CONCENTRATION [5]: 30.9 G/DL | MEAN CORPUSCULAR VOLUME [5]: 63.73 fL | MONOCYTE [5]: 2.5% | NEUTROPHIL [5]: 13.5% | PLATELET COUNT [5]: 1416.33 x10E3/uL | ALANINE AMINOTRANSFERASE [5]: 33 u/L | ALBUMIN [5]: 3.63 G/DL | ALKALINE PHOSPHATASE [5]: 396.33 u/L | ASPARTATE AMINOTRANSFERASE [5]: 56 u/L | BLOOD UREA NITROGEN [5]: 11.33 mg/dL | CHLORIDE [5]: 96 MEQ/L | CHOLESTEROL [5]: 74.67 mg/dL | CREATINE PHOSPHOKINASE [5]: 136.67 u/L | CREATININE [5]: 0.47 mg/dL | GLUCOSE [5]: 209.33 mg/dL | PHOSPHORUS [5]: 12.83 mg/dL | POTASSIUM [5]: 6.4 MEQ/L | SODIUM [5]: 140.33 MEQ/L | TOTAL BILIRUBIN [5]: 0.27 mg/dL | TOTAL PROTEIN [5]: 6.5 G/DL | BASOPHIL [6]: 1.43% | EOSINOPHIL [6]: 0.2% | ERYTHROCYTE COUNT [6]: 6.9 x10E6/uL | HEMATOCRIT [6]: 44.03% | HEMOGLOBIN [6]: 13.87 G/DL | LEUKOCYTE COUNT [6]: 10.25 x10E3/uL | LYMPHOCYTE [6]: 84.9% | MEAN CORPUSCULAR HEMOGLOBIN [6]: 20.03 pg | MEAN CORPUSCULAR HEMOGLOBIN CONCENTRATION [6]: 31.4 G/DL | MEAN CORPUSCULAR VOLUME [6]: 63.83 fL | MONOCYTE [6]: 2.17% | NEUTROPHIL [6]: 10.6% | PLATELET COUNT [6]: 1408.33 x10E3/uL | ALANINE AMINOTRANSFERASE [6]: 37.33 u/L | ALBUMIN [6]: 3.6 G/DL | ALKALINE PHOSPHATASE [6]: 340.67 u/L | ASPARTATE AMINOTRANSFERASE [6]: 58 u/L | BLOOD UREA NITROGEN [6]: 9 mg/dL | CHLORIDE [6]: 103.33 MEQ/L | CHOLESTEROL [6]: 58 mg/dL | CREATINE PHOSPHOKINASE [6]: 132.33 u/L | CREATININE [6]: 0.43 mg/dL | GLUCOSE [6]: 190.33 mg/dL | PHOSPHORUS [6]: 13.17 mg/dL | POTASSIUM [6]: 7.2 MEQ/L | SODIUM [6]: 150.33 MEQ/L | TOTAL BILIRUBIN [6]: 0.27 mg/dL
